Measurements from US8063048B2, “Acetylenyl-pyrazolo-pyrimidine derivatives” (Hoffmann-La Roche Inc., priority 2005, dated 2011).

Structure (SMILES)	melting point
NS(=O)(=O)c1ccc(C#Cc2cnn3c(C4CC4)cc(-c4ccc(Cl)c(Cl)c4)nc23)cc1 [Example 88, 4-[7-Cyclopropyl-5-(3,4-dichloro-phenyl)-pyrazolo[1,5-a]pyrimidin-3-ylethynyl]-benzenesulfonamide]	259 to 261 °C
Cc1cc(-c2cc(C(F)(F)F)n3ncc(C#Cc4cccnc4)c3n2)ccc1Cl [Example 101, 5-(4-Chloro-3-methyl-phenyl)-3-pyridin-3-ylethynyl-7-trifluoromethyl-pyrazolo[1,5-a]pyrimidine]	196 °C
Cc1cc(-c2ccc(C(F)(F)F)cc2)nc2c(C#Cc3cnc(N)nc3)cnn12 [Example 315, 5-[7-Methyl-5-(4-trifluoromethyl-phenyl)-pyrazolo[1,5-a]pyrimidin-3-ylethynyl]-pyrimidin-2-ylamine]	246 to 248 °C
NS(=O)(=O)c1ccc(C#Cc2cnn3c(C(F)(F)F)cc(-c4ccc(Cl)c(Cl)c4)nc23)s1 [Example 89, 5-[5-(3,4-Dichloro-phenyl)-7-trifluoromethyl-pyrazolo[1,5-a]pyrimidin-3-ylethynyl]-thiophene-2-sulfonic acid amide]	231 to 232 °C
O=S(=O)(NC(CO)CO)c1ccc(C#Cc2cnn3c(C(F)F)cc(-c4ccc(C(F)(F)F)cc4)nc23)s1 [Example 270, 5-[7-Difluoromethyl-5-(4-trifluoromethyl-phenyl)-pyrazolo[1,5-a]pyrimidin-3-ylethynyl]-thiophene-2-sulfonic acid (2-hydroxy-1-hydroxymethyl-ethyl)-amide]	152 °C
CN1CCN(S(=O)(=O)c2ccc(C#Cc3cnn4c(C(F)(F)F)cc(-c5cccc(C(F)(F)F)c5)nc34)s2)CC1 [Example 249, 3-[5-(4-Methyl-piperazine-1-sulfonyl)-thiophen-2-ylethynyl]-7-trifluoromethyl-5-(3-trifluoromethyl-phenyl)-pyrazolo[1,5-a]pyrimidine]	191 °C
O=S(=O)(NCc1cccnc1)c1ccc(C#Cc2cnn3c(C(F)F)cc(-c4ccc(C(F)(F)F)cc4)nc23)s1 [Example 278, 5-[7-Difluoromethyl-5-(4-trifluoromethyl-phenyl)-pyrazolo[1,5-a]pyrimidin-3-ylethynyl]-thiophene-2-sulfonic acid (pyridin-3-ylmethyl)-amide]	152 °C
Cc1cc(-c2cc(C(F)F)n3ncc(C#Cc4ccc(S(N)(=O)=O)cc4)c3n2)ccc1Cl [Example 173, 4-[5-(4-Chloro-3-methyl-phenyl)-7-difluoromethyl-pyrazolo[1,5-a]pyrimidin-3-ylethynyl]-benzenesulfonamide]	237 °C
NS(=O)(=O)c1ccc(C#Cc2ncn3c(C(F)F)cc(-c4ccc(C(F)(F)F)cc4)nc23)s1 [Example 275, 5-[4-Difluoromethyl-2-(4-trifluoromethyl-phenyl)-imidazo[1,5-a]pyrimidin-8-ylethynyl]-thiophene-2-sulfonic acid amide]	223 °C
NS(=O)(=O)c1ccc(C#Cc2cnc3c(C4CC4)cc(-c4ccc(C(F)(F)F)cc4)cn23)s1 [Example 224, 5-[8-Cyclopropyl-6-(4-trifluoromethyl-phenyl)-imidazo[1,2-a]pyridin-3-ylethynyl]-thiophene-2-sulfonic acid amide]	261 °C
Nc1ccc(C#Cc2cnc3c(F)cc(-c4ccc(C(F)(F)F)cc4)cn23)cn1 [Example 239, 5-[8-Fluoro-6-(4-trifluoromethyl-phenyl)-imidazo[1,2-a]pyridin-3-ylethynyl]-pyridin-2-ylamine]	281 to 282 °C
NS(=O)(=O)c1ccc(C#Cc2cnn3c(C(F)F)cc(-c4cccc(C(F)(F)F)c4)nc23)cc1 [Example 176, 4-[7-Difluoromethyl-5-(3-trifluoromethyl-phenyl)-pyrazolo[1,5-a]pyrimidin-3-ylethynyl]-benzenesulfonamide]	245 °C
COc1ccc(C#Cc2cnn3c(C(F)F)cc(-c4ccc(C(F)(F)F)cc4)nc23)cc1S(=O)(=O)NC(C)(C)CO [Example 43, 5-[7-Difluoromethyl-5-(4-trifluoromethyl-phenyl)-pyrazolo[1,5-a]pyrimidin-3-ylethynyl]-N-(2-hydroxy-1,1-dimethyl-ethyl)-2-methoxy-benzenesulfonamide]	178 to 180 °C
NS(=O)(=O)c1ccc(C#Cc2cnc3c(C(F)(F)F)cc(-c4ccc(C(F)(F)F)cc4)cn23)cc1 [Example 181, 4-[8-Trifluoromethyl-6-(4-trifluoromethyl-phenyl)-imidazo[1,2-a]pyridin-3-ylethynyl]-benzenesulfonamide]	278 to 280 °C
Cc1cc(-c2cc(C(F)(F)F)n3ncc(C#Cc4ccc(S(=O)(=O)NCCN(C)C)s4)c3n2)ccc1Cl [Example 257, 5-[5-(4-Chloro-3-methyl-phenyl)-7-trifluoromethyl-pyrazolo[1,5-a]pyrimidin-3-ylethynyl]-thiophene-2-sulfonic acid (2-dimethylamino-ethyl)-amide]	179 °C
NS(=O)(=O)c1cncc(C#Cc2cnn3c(C4CC4)cc(-c4ccc(Cl)cc4)nc23)c1 [Example 66, 5-[5-(4-Chloro-phenyl)-7-cyclopropyl-pyrazolo[1,5-a]pyrimidin-3-ylethynyl]-pyridine-3-sulfonic acid amide]	252 to 254 °C
O=S(=O)(NC(CO)CO)c1ccc(C#Cc2cnn3c(C(F)(F)F)cc(-c4cccc(C(F)(F)F)c4)nc23)s1 [Example 271, 5-[7-Trifluoromethyl-5-(3-trifluoromethyl-phenyl)-pyrazolo[1,5-a]pyrimidin-3-ylethynyl]-thiophene-2-sulfonic acid (2-hydroxy-1-hydroxymethyl-ethyl)-amide]	210 °C
NS(=O)(=O)c1cccc(C#Cc2cnn3c(C4CC4)cc(-c4ccc(Cl)cc4)nc23)c1 [Example 72, 3-[5-(4-Chloro-phenyl)-7-cyclopropyl-pyrazolo[1,5-a]pyrimidin-3-ylethynyl]-benzenesulfonamide]	236 to 237 °C
O=S(=O)(Nc1cccnc1)c1ccc(C#Cc2cnn3c(C(F)F)cc(-c4ccc(C(F)(F)F)cc4)nc23)s1 [Example 281, 5-[7-Difluoromethyl-5-(4-trifluoromethyl-phenyl)-pyrazolo[1,5-a]pyrimidin-3-ylethynyl]-thiophene-2-sulfonic acid pyridin-3-ylamide]	226 °C

Further lines, results first:

melting point	Structure (SMILES)
172 to 174 °C	CC(CO)(CO)NS(=O)(=O)c1cccc(C#Cc2cnn3c(C(F)F)cc(-c4ccc(C(F)(F)F)cc4)nc23)c1 [Example 33, 3-[7-Difluoromethyl-5-(4-trifluoromethyl-phenyl)-pyrazolo[1,5-a]pyrimidin-3-ylethynyl]-N-(2-hydroxy-1-hydroxymethyl-1-methyl-ethyl)-benzene sulfonamide]
206 to 208 °C	O=S(=O)(NCCO)c1ccc(C#Cc2cnn3c(C(F)(F)F)cc(-c4ccc(C(F)(F)F)cc4)nc23)cc1 [Example 125, N-(2-Hydroxy-ethyl)-4-[7-trifluoromethyl-5-(4-trifluoromethyl-phenyl)-pyrazolo[1,5-a]pyrimidin-3-ylethynyl]-benzenesulfonamide]
157 to 159 °C	CN(C)CCNS(=O)(=O)c1ccc(C#Cc2cnn3c(C(F)F)cc(-c4ccc(C(F)(F)F)cc4)nc23)cc1 [Example 141, 4-[7-Difluoromethyl-5-(4-trifluoromethyl-phenyl)-pyrazolo[1,5-a]pyrimidin-3-ylethynyl]-N-(2-dimethylamino-ethyl)-benzenesulfonamide]
201 to 204 °C	CC(C)(CO)NS(=O)(=O)c1cccc(C#Cc2cnn3c(C(F)(F)F)cc(-c4ccc(C(F)(F)F)cc4)nc23)c1 [Example 4, N-(2-Hydroxy-1,1-dimethyl-ethyl)-3-[7-trifluoromethyl-5-(4-trifluoromethyl-phenyl)-pyrazolo[1,5-a]pyrimidin-3-ylethynyl]-benzenesulfonamide]
254 °C	NS(=O)(=O)c1ccc(C#Cc2cnn3c(C(F)F)cc(-c4ccc(C(F)(F)F)cc4)nc23)cc1 [Example 49, 4-[7-Difluoromethyl-5-(4-trifluoromethyl-phenyl)-pyrazolo[1,5-a]pyrimidin-3-ylethynyl]-benzenesulfonamide]
251 to 254 °C	Cc1nc(N)ccc1C#Cc1cnn2c(C(F)(F)F)cc(-c3ccc(C(F)(F)F)cc3)nc12 [Example 128, 6-Methyl-5-[7-trifluoromethyl-5-(4-trifluoromethyl-phenyl)-pyrazolo[1,5-a]pyrimidin-3-ylethynyl]-pyridin-2-ylamine]
202 to 203 °C	OCCNc1ccc(C#Cc2cnn3c(C(F)(F)F)cc(-c4ccc(C(F)(F)F)cc4)nc23)cn1 [Example 200, 2-{5-[7-Trifluoromethyl-5-(4-trifluoromethyl-phenyl)-pyrazolo[1,5-a]pyrimidin-3-ylethynyl]-pyridin-2-ylamino}-ethanol]
216 to 218 °C	Cc1nc(C#Cc2cnn3c(C(F)(F)F)cc(-c4ccc(C(F)(F)F)cc4)nc23)sc1S(=O)(=O)NC(C)(C)CO [Example 53, 4-Methyl-2-[7-trifluoromethyl-5-(4-trifluoromethyl-phenyl)-pyrazolo[1,5-a]pyrimidin-3-ylethynyl]-thiazole-5-sulfonic acid (2-hydroxy-1,1-dimethyl-ethyl)-amide]
146 to 147 °C	CN(C)CCNS(=O)(=O)c1cccc(C#Cc2cnn3c(C(F)(F)F)cc(-c4ccc(C(F)(F)F)cc4)nc23)c1 [Example 133, N-(2-Dimethylamino-ethyl)-3-[7-trifluoromethyl-5-(4-trifluoromethyl-phenyl)-pyrazolo[1,5-a]pyrimidin-3-ylethynyl]-benzenesulfonamide]
247 °C	O=S(=O)(NC(CO)CO)c1ccc(C#Cc2cnn3c(C(F)(F)F)cc(-c4ccc(C(F)(F)F)cc4)nc23)s1 [Example 163, 5-[7-Trifluoromethyl-5-(4-trifluoromethyl-phenyl)-pyrazolo[1,5-a]pyrimidin-3-ylethynyl]-thiophene-2-sulfonic acid (2-hydroxy-1-hydroxymethyl-ethyl)-amide]
213 °C	O=S(=O)(NCCO)c1cccc(C#Cc2cnn3c(C(F)(F)F)cc(-c4ccc(C(F)(F)F)cc4)nc23)c1 [Example 132, N-(2-Hydroxy-ethyl)-3-[7-trifluoromethyl-5-(4-trifluoromethyl-phenyl)-pyrazolo[1,5-a]pyrimidin-3-ylethynyl]-benzenesulfonamide]
